# According to ChEMBL document CHEMBL3885861, “Open TG-GATES”:
# Species: Rattus norvegicus
# Test: Open TG-GATES - Regimen: Daily Repeat
# Format: toxicity, organism-based, Sprague-Dawley
# Parameters: regimen Daily Repeat, gender Male, age 6 weeks
# Conditions: in vivo, po, 20 mg/kg, route gavage, dose level Low; for APTT / Bas / Eos / Fbg / Hb / Ht / Lym / MCH / MCHC / MCV / Mono / Neu / PT / Plat / RBC / Ret / WBC: tissue Blood; for KIDNEY_L / KIDNEY_R / KIDNEY_TOTAL: tissue Kidney; for LIVER: tissue Liver; for A/G / ALP / ALT / AST / BUN / CRE / Ca / Cl / DBIL / GLC / IP / K / LDH / Na / PL / RALB / TBIL / TC / TG / TP / gamma-GTP: tissue Plasma
smiles,measurement,setting,value
Cn1c(=O)c2[nH]cnc2n(C)c1=O.O [THEOPHYLLINE],TERMINAL_BW,"72 h, time 3 day",242.7 g
same,APTT,"72 h, time 3 day",22.4 s
same,Bas,"72 h, time 3 day",0%
same,Eos,"72 h, time 3 day",1%
same,Fbg,"72 h, time 3 day",305.4 mg/dL
same,Hb,"72 h, time 3 day",13.4 g/dL
same,Ht,"72 h, time 3 day",39.6%
same,Lym,"72 h, time 3 day",76.6%
same,MCH,"72 h, time 3 day",21.2 pg
same,MCHC,"72 h, time 3 day",33.8%
same,MCV,"72 h, time 3 day",62.6 fL
same,Mono,"72 h, time 3 day",3.2%
same,Neu,"72 h, time 3 day",18%
same,PT,"72 h, time 3 day",15.5 s
same,Plat,"72 h, time 3 day",119.5 x10_4/uL
same,RBC,"72 h, time 3 day",632.4 x10_4/ul
same,Ret,"72 h, time 3 day",5.9%
same,WBC,"72 h, time 3 day",125.2 x10_2/uL
same,KIDNEY_L,"72 h, time 3 day",1.1 g
same,KIDNEY_R,"72 h, time 3 day",1.1 g
same,KIDNEY_TOTAL,"72 h, time 3 day",2.1 g
same,LIVER,"72 h, time 3 day",10.9 g
same,A/G,"72 h, time 3 day",1.3
same,ALP,"72 h, time 3 day",1574.4 IU/L
same,ALT,"72 h, time 3 day",45.2 IU/L
same,AST,"72 h, time 3 day",71.8 IU/L
same,BUN,"72 h, time 3 day",15.4 mg/dL
same,CRE,"72 h, time 3 day",0.2 mg/dL
same,Ca,"72 h, time 3 day",10.6 mg/dL
same,Cl,"72 h, time 3 day",106.8 meq/L
same,DBIL,"72 h, time 3 day",0 mg/dL
same,GLC,"72 h, time 3 day",194.8 mg/dL
same,IP,"72 h, time 3 day",7.4 mg/dL
same,K,"72 h, time 3 day",4.4 meq/L
same,LDH,"72 h, time 3 day",167.2 IU/L
same,Na,"72 h, time 3 day",142.4 meq/L
same,PL,"72 h, time 3 day",132.6 mg/dL
same,RALB,"72 h, time 3 day",3 g/dL
same,TBIL,"72 h, time 3 day",0.004 mg/dL
same,TC,"72 h, time 3 day",70 mg/dL
same,TG,"72 h, time 3 day",97 mg/dL
same,TP,"72 h, time 3 day",5.5 g/dL
same,gamma-GTP,"72 h, time 3 day",1.6 IU/L
same,TERMINAL_BW,"[…], time 7 day",271.5 g
same,TERMINAL_BW,"[…], time 14 day",324.6 g
same,TERMINAL_BW,"[…], time 28 day",357.5 g
same,APTT,"[…], time 7 day",24 s
same,Bas,"[…], time 7 day",0%
same,Eos,"[…], time 7 day",1%
same,Fbg,"[…], time 7 day",312.6 mg/dL
same,Hb,"[…], time 7 day",14.2 g/dL
same,Ht,"[…], time 7 day",41.1%
same,Lym,"[…], time 7 day",80%
same,MCH,"[…], time 7 day",20.9 pg
same,MCHC,"[…], time 7 day",34.5%
same,MCV,"[…], time 7 day",60.5 fL
same,Mono,"[…], time 7 day",2.6%
same,Neu,"[…], time 7 day",14.4%
same,PT,"[…], time 7 day",15.4 s
same,Plat,"[…], time 7 day",111.8 x10_4/uL
same,RBC,"[…], time 7 day",679 x10_4/ul
same,Ret,"[…], time 7 day",5.3%
same,WBC,"[…], time 7 day",121.9 x10_2/uL
same,APTT,"[…], time 14 day",24.1 s
same,Bas,"[…], time 14 day",0%
same,Eos,"[…], time 14 day",1%
same,Fbg,"[…], time 14 day",333.4 mg/dL
same,Hb,"[…], time 14 day",14.4 g/dL
same,Ht,"[…], time 14 day",42.7%
same,Lym,"[…], time 14 day",80%
same,MCH,"[…], time 14 day",19.9 pg
same,MCHC,"[…], time 14 day",33.7%
same,MCV,"[…], time 14 day",59 fL
same,Mono,"[…], time 14 day",2.4%
same,Neu,"[…], time 14 day",14.6%
same,PT,"[…], time 14 day",15.3 s
same,Plat,"[…], time 14 day",110.9 x10_4/uL
same,RBC,"[…], time 14 day",724.8 x10_4/ul
same,Ret,"[…], time 14 day",4.9%
same,WBC,"[…], time 14 day",110 x10_2/uL
same,APTT,"[…], time 28 day",26.7 s
same,Bas,"[…], time 28 day",0%
same,Eos,"[…], time 28 day",1%
same,Fbg,"[…], time 28 day",333.2 mg/dL
same,Hb,"[…], time 28 day",15.4 g/dL
same,Ht,"[…], time 28 day",44.6%
same,Lym,"[…], time 28 day",83.6%
same,MCH,"[…], time 28 day",18.7 pg
same,MCHC,"[…], time 28 day",34.4%
same,MCV,"[…], time 28 day",54.4 fL
same,Mono,"[…], time 28 day",1.6%
same,Neu,"[…], time 28 day",12.8%
same,PT,"[…], time 28 day",15.8 s
same,Plat,"[…], time 28 day",108.7 x10_4/uL
same,RBC,"[…], time 28 day",820.8 x10_4/ul
same,Ret,"[…], time 28 day",2.5%
same,WBC,"[…], time 28 day",112.5 x10_2/uL
same,KIDNEY_L,"[…], time 7 day",1.1 g
same,KIDNEY_R,"[…], time 7 day",1.2 g
same,KIDNEY_TOTAL,"[…], time 7 day",2.3 g
same,KIDNEY_L,"[…], time 14 day",1.3 g
same,KIDNEY_R,"[…], time 14 day",1.3 g
same,KIDNEY_TOTAL,"[…], time 14 day",2.6 g
same,KIDNEY_L,"[…], time 28 day",1.3 g
same,KIDNEY_R,"[…], time 28 day",1.4 g
same,KIDNEY_TOTAL,"[…], time 28 day",2.8 g
same,LIVER,"[…], time 7 day",12.4 g
same,LIVER,"[…], time 14 day",14.3 g
same,LIVER,"[…], time 28 day",13.8 g
same,A/G,"[…], time 7 day",1.1
same,ALP,"[…], time 7 day",1498.6 IU/L
same,ALT,"[…], time 7 day",40 IU/L
same,AST,"[…], time 7 day",68.2 IU/L
same,BUN,"[…], time 7 day",19.2 mg/dL
same,CRE,"[…], time 7 day",0.2 mg/dL
same,Ca,"[…], time 7 day",10.3 mg/dL
same,Cl,"[…], time 7 day",106.2 meq/L
same,DBIL,"[…], time 7 day",0 mg/dL
same,GLC,"[…], time 7 day",185.4 mg/dL
same,IP,"[…], time 7 day",7.3 mg/dL
same,K,"[…], time 7 day",4.2 meq/L
same,LDH,"[…], time 7 day",184.6 IU/L
same,Na,"[…], time 7 day",142.2 meq/L
same,PL,"[…], time 7 day",150 mg/dL
same,RALB,"[…], time 7 day",3 g/dL
same,TBIL,"[…], time 7 day",0.004 mg/dL
same,TC,"[…], time 7 day",77.2 mg/dL
same,TG,"[…], time 7 day",106.2 mg/dL
same,TP,"[…], time 7 day",5.7 g/dL
same,gamma-GTP,"[…], time 7 day",1.8 IU/L
same,A/G,"[…], time 14 day",1.2
same,ALP,"[…], time 14 day",1256.2 IU/L
same,ALT,"[…], time 14 day",37 IU/L
same,AST,"[…], time 14 day",64 IU/L
same,BUN,"[…], time 14 day",17.8 mg/dL
same,CRE,"[…], time 14 day",0.2 mg/dL
same,Ca,"[…], time 14 day",10.3 mg/dL
same,Cl,"[…], time 14 day",106.4 meq/L
same,DBIL,"[…], time 14 day",0 mg/dL
same,GLC,"[…], time 14 day",177.6 mg/dL
same,IP,"[…], time 14 day",7.4 mg/dL
same,K,"[…], time 14 day",4.2 meq/L
same,LDH,"[…], time 14 day",140.8 IU/L
same,Na,"[…], time 14 day",141.8 meq/L
same,PL,"[…], time 14 day",152.2 mg/dL
same,RALB,"[…], time 14 day",3.1 g/dL
same,TBIL,"[…], time 14 day",0.008 mg/dL
same,TC,"[…], time 14 day",82.4 mg/dL
same,TG,"[…], time 14 day",92.4 mg/dL
same,TP,"[…], time 14 day",5.8 g/dL
same,gamma-GTP,"[…], time 14 day",2.6 IU/L
same,A/G,"[…], time 28 day",1.1
same,ALP,"[…], time 28 day",1031.2 IU/L
same,ALT,"[…], time 28 day",39.8 IU/L
same,AST,"[…], time 28 day",68.2 IU/L
same,BUN,"[…], time 28 day",16.6 mg/dL
same,CRE,"[…], time 28 day",0.2 mg/dL
same,Ca,"[…], time 28 day",10.1 mg/dL
same,Cl,"[…], time 28 day",107 meq/L
same,DBIL,"[…], time 28 day",0 mg/dL
same,GLC,"[…], time 28 day",192.2 mg/dL
same,IP,"[…], time 28 day",6.2 mg/dL
same,K,"[…], time 28 day",3.8 meq/L
same,LDH,"[…], time 28 day",134.6 IU/L
same,Na,"[…], time 28 day",143 meq/L
same,PL,"[…], time 28 day",137.6 mg/dL
same,RALB,"[…], time 28 day",3.2 g/dL
same,TBIL,"[…], time 28 day",0.016 mg/dL
same,TC,"[…], time 28 day",73.6 mg/dL
same,TG,"[…], time 28 day",97.6 mg/dL
same,TP,"[…], time 28 day",6.1 g/dL
same,gamma-GTP,"[…], time 28 day",2 IU/L
